Measured values published in ChEMBL document CHEMBL3390836, “Mannich- and LedererManasse-based analogues of the natural product S-(+)-curcuphenol as cancer proliferation and migration inhibitors” (Medchemcomm, 2012).

Legend:
Format in all cases: functional
[1] = system: NCI-H23; assay: Cytotoxicity against human NCI-H23 cells assessed as cell growth at 10^-4 M after 48 hrs by SRB assay relative to control; settings: NCI-H23, 48 h, read-out: Activity
[2] = system: HT-29; assay: Cytotoxicity against human HT-29 cells assessed as cell growth at 10^-4 M after 48 hrs by SRB assay relative to control; settings: HT-29, 48 h, read-out: Activity
[3] = system: MDA-MB-435; assay: Cytotoxicity against human MDA-MB-435 cells after 48 hrs by SRB assay; settings: MDA-MB-435, 48 h; for CC50: read-out: LC50 (the source's name)
[4] = system: SN12C; assay: Cytotoxicity against human SN12C cells after 48 hrs by SRB assay
[5] = system: U-251; assay: Cytotoxicity against human U251 cells assessed as cell growth at 10^-4 M after 48 hrs by SRB assay relative to control; settings: U-251, 48 h, read-out: Activity
[6] = system: MDA-MB-435; assay: Cytotoxicity against human MDA-MB-435 cells assessed as cell growth at 10^-4 M after 48 hrs by SRB assay relative to control; settings: MDA-MB-435, 48 h, read-out: Activity
[7] = system: MCF7; assay: Cytotoxicity against human MCF7 cells after 48 hrs by SRB assay; settings: MCF7, 48 h; for CC50: read-out: LC50 (the source's name)
[8] = system: MDA-MB-231; assay: Cytotoxicity against human MDA-MB-231 cells after 48 hrs by SRB assay; settings: MDA-MB-231, 48 h
[9] = system: SW-620; assay: Cytotoxicity against human SW620 cells assessed as cell growth at 10^-8 M after 48 hrs by SRB assay relative to control; settings: SW-620, 48 h, read-out: Activity
[10] = system: SF-295; assay: Cytotoxicity against human SF295 cells assessed as cell growth at 10^-8 M after 48 hrs by SRB assay relative to control; settings: SF-295, 48 h, read-out: Activity
[11] = system: LOX IMVI; assay: Cytotoxicity against human LOXIMVI cells assessed as cell growth at 10^-8 M after 48 hrs by SRB assay relative to control; settings: read-out: Activity
[12] = Cytotoxicity against human SKOV3 cells assessed as cell growth at 10^-4 M after 48 hrs by SRB assay relative to control; settings: SK-OV-3, 48 h, read-out: Activity
[13] = system: CAKI-1; assay: Cytotoxicity against human Caki1 cells assessed as cell growth at 10^-4 M after 48 hrs by SRB assay relative to control; settings: CAKI-1, 48 h, read-out: Activity
[14] = Cytotoxicity against human UO31 cells assessed as cell growth at 10^-4 M after 48 hrs by SRB assay relative to control; settings: UO-31, 48 h, read-out: Activity
[15] = system: MDA-MB-231; assay: Cytotoxicity against human MDA-MB-231 cells assessed as cell growth at 10^-4 M after 48 hrs by SRB assay relative to control; settings: MDA-MB-231, 48 h, read-out: Activity
[16] = Cytotoxicity against human OVCAR4 cells assessed as cell growth at 10^-8 M after 48 hrs by SRB assay relative to control; settings: OVCAR-4, 48 h, read-out: Activity
[17] = system: A549; assay: Cytotoxicity against human A549 cells assessed as cell growth at 10^-7 M after 48 hrs by SRB assay relative to control; settings: A549, 48 h, read-out: Activity
[18] = system: COLO 205; assay: Cytotoxicity against human COLO205 cells assessed as cell growth at 10^-7 M after 48 hrs by SRB assay relative to control; settings: COLO 205, 48 h, read-out: Activity
[19] = system: SW-620; assay: Cytotoxicity against human SW620 cells assessed as cell growth at 10^-7 M after 48 hrs by SRB assay relative to control; settings: SW-620, 48 h, read-out: Activity
[20] = system: SF-268; assay: Cytotoxicity against human SF268 cells assessed as cell growth at 10^-7 M after 48 hrs by SRB assay relative to control; settings: SF-268, 48 h, read-out: Activity
[21] = system: Malme-3M; assay: Cytotoxicity against human MALME-3M cells assessed as cell growth at 10^-7 M after 48 hrs by SRB assay relative to control; settings: read-out: Activity
[22] = system: HT-29; assay: Cytotoxicity against human HT-29 cells after 48 hrs by SRB assay; settings: HT-29, 48 h; for CC50: read-out: LC50 (the source's name)
[23] = system: SF-295; assay: Cytotoxicity against human SF295 cells after 48 hrs by SRB assay; settings: SF-295, 48 h; for CC50: read-out: LC50 (the source's name)
[24] = Cytotoxicity against human NCI-ADR-RES cells assessed as cell growth at 10^-7 M after 48 hrs by SRB assay relative to control; settings: read-out: Activity
[25] = system: RXF 393; assay: Cytotoxicity against human RXF393 cells assessed as cell growth at 10^-7 M after 48 hrs by SRB assay relative to control; settings: RXF 393, 48 h, read-out: Activity
[26] = system: SN12C; assay: Cytotoxicity against human SN12C cells assessed as cell growth at 10^-7 M after 48 hrs by SRB assay relative to control; settings: read-out: Activity
[27] = system: A549; assay: Cytotoxicity against human A549 cells assessed as cell growth at 10^-6 M after 48 hrs by SRB assay relative to control; settings: A549, 48 h, read-out: Activity
[28] = system: LOX IMVI; assay: Cytotoxicity against human LOXIMVI cells assessed as cell growth at 10^-6 M after 48 hrs by SRB assay relative to control; settings: read-out: Activity
[29] = system: Malme-3M; assay: Cytotoxicity against human MALME-3M cells assessed as cell growth at 10^-6 M after 48 hrs by SRB assay relative to control; settings: read-out: Activity
[30] = system: SK-MEL-2; assay: Cytotoxicity against human SK-MEL-2 cells assessed as cell growth at 10^-6 M after 48 hrs by SRB assay relative to control; settings: SK-MEL-2, 48 h, read-out: Activity
[31] = system: IGROV-1; assay: Cytotoxicity against human IGROV1 cells assessed as cell growth at 10^-6 M after 48 hrs by SRB assay relative to control; settings: IGROV-1, 48 h, read-out: Activity
[32] = Cytotoxicity against human OVCAR4 cells assessed as cell growth at 10^-6 M after 48 hrs by SRB assay relative to control; settings: OVCAR-4, 48 h, read-out: Activity
[33] = system: RXF 393; assay: Cytotoxicity against human RXF393 cells assessed as cell growth at 10^-6 M after 48 hrs by SRB assay relative to control; settings: RXF 393, 48 h, read-out: Activity
[34] = system: SN12C; assay: Cytotoxicity against human SN12C cells assessed as cell growth at 10^-6 M after 48 hrs by SRB assay relative to control; settings: read-out: Activity
[35] = Cytotoxicity against human PC3 cells assessed as cell growth at 10^-6 M after 48 hrs by SRB assay relative to control; settings: PC-3, 48 h, read-out: Activity
[36] = system: MCF7; assay: Cytotoxicity against human MCF7 cells assessed as cell growth at 10^-6 M after 48 hrs by SRB assay relative to control; settings: MCF7, 48 h, read-out: Activity
[37] = Cytotoxicity against human EKVX cells assessed as cell growth at 10^-4 M after 48 hrs by SRB assay relative to control; settings: read-out: Activity

CC(C)=CCC[C@H](C)c1ccc(C)c2c1OCN(CC1CCNCC1)C2
growth at 100 µM [1]: -71%
growth at 100 µM [2]: -66%
GI50 [3]: 6.48 µM
TGI [3]: 20.9 µM
CC50 [3]: 53.4 µM
GI50 [4]: 14.2 µM
LC50 [4]: 58.7 µM
TGI [4]: 28.9 µM
growth at 100 µM [5]: -87%
growth at 100 µM [6]: -83%
GI50 [7]: 6.15 µM
TGI [7]: 18.7 µM
CC50 [7]: 45.2 µM
GI50 [8]: 12.5 µM
LC50 [8]: 64.1 µM
TGI [8]: 28.3 µM
growth at 0.01 µM [9]: 96%
growth at 0.01 µM [10]: 92%
growth at 0.01 µM [11]: 100%
growth at 100 µM [12]: -94%
growth at 100 µM [13]: -69%
growth at 100 µM [14]: -86%
growth at 100 µM [15]: -77%
growth at 0.01 µM [16]: 102%
growth at 0.1 µM [17]: 90%
growth at 0.1 µM [18]: 108%
growth at 0.1 µM [19]: 100%
growth at 0.1 µM [20]: 99%
growth at 0.1 µM [21]: 94%
GI50 [22]: 3 µM
TGI [22]: 8.38 µM
CC50 [22]: 53 µM
GI50 [23]: 15.9 µM
TGI [23]: 34.9 µM
CC50 [23]: 76.5 µM
growth at 0.1 µM [24]: 98%
growth at 0.1 µM [25]: 112%
growth at 0.1 µM [26]: 102%
growth at 1 µM [27]: 96%
growth at 1 µM [28]: 99%
growth at 1 µM [29]: 95%
growth at 1 µM [30]: 120%
growth at 1 µM [31]: 106%
growth at 1 µM [32]: 101%
growth at 1 µM [33]: 125%
growth at 1 µM [34]: 102%
growth at 1 µM [35]: 103%
growth at 1 µM [36]: 104%
growth at 100 µM [37]: -17%

CC(C)=CCC[C@H](C)c1ccc(C)c(CNCC2CCNCC2)c1O
growth at 100 µM [1]: 54%
growth at 100 µM [2]: -66%
GI50 [3]: 3.71 µM
TGI [3]: 8.44 µM
CC50 [3]: 19.2 µM
GI50 [4]: 12.9 µM
LC50 [4]: > 25 µM
TGI [4]: > 25 µM
growth at 100 µM [5]: -81%
growth at 100 µM [6]: -66%
GI50 [7]: 4.5 µM
TGI [7]: 8.34 µM
CC50 [7]: 15.5 µM
GI50 [8]: 3.48 µM
LC50 [8]: 19.3 µM
TGI [8]: 8.19 µM
growth at 0.01 µM [9]: 100%
growth at 0.01 µM [10]: 96%
growth at 0.01 µM [11]: 95%
growth at 100 µM [12]: 8%
growth at 100 µM [13]: -29%
growth at 100 µM [14]: -29%
growth at 100 µM [15]: -65%
growth at 0.01 µM [16]: 100%
growth at 0.1 µM [17]: 98%
growth at 0.1 µM [18]: 101%
growth at 0.1 µM [19]: 95%
growth at 0.1 µM [20]: 97%
growth at 0.1 µM [21]: 89%
GI50 [22]: 4.51 µM
TGI [22]: 9.45 µM
CC50 [22]: 19.8 µM
GI50 [23]: 3.31 µM
TGI [23]: 7.53 µM
CC50 [23]: 17.1 µM
growth at 0.1 µM [24]: 100%
growth at 0.1 µM [25]: 85%
growth at 0.1 µM [26]: 91%
growth at 1 µM [27]: 98%
growth at 1 µM [28]: 98%
growth at 1 µM [29]: 84%
growth at 1 µM [30]: 116%
growth at 1 µM [31]: 98%
growth at 1 µM [32]: 101%
growth at 1 µM [33]: 95%
growth at 1 µM [34]: 93%
growth at 1 µM [35]: 101%
growth at 1 µM [36]: 93%
growth at 100 µM [37]: 35%

COc1ccc(CCN2COc3c([C@@H](C)CCC=C(C)C)ccc(C)c3C2)cc1OC
growth at 100 µM [1]: -92%
growth at 100 µM [2]: -89%
GI50 [3]: 3.11 µM
TGI [3]: 10.9 µM
CC50 [3]: 44.9 µM
GI50 [4]: 3.27 µM
LC50 [4]: 36.8 µM
TGI [4]: 13.5 µM
growth at 100 µM [5]: -100%
growth at 100 µM [6]: -78%
GI50 [7]: 3.29 µM
TGI [7]: 11 µM
CC50 [7]: 36.3 µM
GI50 [8]: 2.76 µM
LC50 [8]: 34.5 µM
TGI [8]: 9.37 µM
growth at 0.01 µM [9]: 97%
growth at 0.01 µM [10]: 81%
growth at 0.01 µM [11]: 87%
growth at 100 µM [12]: -60%
growth at 100 µM [13]: -86%
growth at 100 µM [14]: -96%
growth at 100 µM [15]: -91%
growth at 0.01 µM [16]: 96%
growth at 0.1 µM [17]: 96%
growth at 0.1 µM [18]: 103%
growth at 0.1 µM [19]: 93%
growth at 0.1 µM [20]: 79%
growth at 0.1 µM [21]: 86%
GI50 [22]: 2.2 µM
TGI [22]: 5.73 µM
CC50 [22]: 22.4 µM
GI50 [23]: 2.02 µM
TGI [23]: 6.56 µM
CC50 [23]: 29 µM
growth at 0.1 µM [24]: 99%
growth at 0.1 µM [25]: 88%
growth at 0.1 µM [26]: 89%
growth at 1 µM [27]: 95%
growth at 1 µM [28]: 88%
growth at 1 µM [29]: 79%
growth at 1 µM [30]: 94%
growth at 1 µM [31]: 53%
growth at 1 µM [32]: 85%
growth at 1 µM [33]: 76%
growth at 1 µM [34]: 87%
growth at 1 µM [35]: 81%
growth at 1 µM [36]: 99%
growth at 100 µM [37]: -40%
